Where a name gives a salt, the structure may show the parent alone.
Experiments:
[1] = human, in vivo
[2] = tested on: patients undergoing elective arthroscopic shoulder surgery; assay: Example 1 / Study 1: adverse events and 6-month follow-up safety; assay type: in vivo, human
From the text: The incidence of adverse events (AEs); the incidence of bupivacaine-related CNS side effects; clinical laboratory tests; vital signs; 12-lead ECGs; and physical examinations.
Evaluation by the investigator of wound healing and tissue conditions at the surgical wound on Days 7 and 14, and at the 6-month follow-up visit. An MRI of the shoulder as well as a functionality assessment of the shoulder using the Constant-Murley score were to be performed at the 6-month follow-up visit.
There were three studies evaluating the safety of Formulation A administered during shoulder surgery. […]
Additional follow-up safety data consisting of shoulder MRI, physical examination of the shoulder, and assessments of wound healing were collected at 6 months in Study 1 and at 18 months in Study 2. […]

[3] = tested on: patients undergoing elective arthroscopic shoulder surgery; assay: Example 1 / Study 1: pain intensity and opioid rescue after arthroscopic shoulder surgery; assay type: in vivo, human; conditions: ITT, HCl
[4] = Example 18: plasma pharmacokinetics by cohort; assay type: in vivo, human; conditions: Cohort 2; total bupivacaine in plasma
Experimental: Plasma PK samples were analyzed for determination of total bupivacaine concentration only and none of the samples were analyzed for determination of free drug concentration.

[5] = tested on: patients, abdominal surgeries; assay: Adverse reactions pooled from laparoscopic, laparoscopically-assisted and open abdominal surgery studies; assay type: in vivo, human; conditions: adjusted percentage
[6] = tested on: patients undergoing total abdominal hysterectomy; assay: Adverse reactions, total abdominal hysterectomy study; assay type: in vivo, human; conditions: Formulation A N = 60; Bupivacaine HCl N = 27
Experimental: In a study of patients undergoing total abdominal hysterectomy, Formulation A, vehicle placebo, or bupivacaine HCl was administered into the surgical incision at the end of surgery.

rats = assay: Rat pre- and post-natal development study; assay type: in vivo; conditions: 40 mg/kg subcutaneous, implantation through weaning
Experimental: There are no studies conducted with Formulation A in pregnant women. […] Based on animal data, advise pregnant women of the potential risks to a fetus. [see Data]
The high dose is approximately 0.6 times the daily MRHD of 660 mg/day on a BSA basis.

pregnant rats = conditions: rat, in vivo
Experimental: Bupivacaine hydrochloride was administered subcutaneously to rats at doses of 4.4, 13.3, & 40 mg/kg and to rabbits at doses of 1.3, 5.8, & 22.2 mg/kg during the period of organogenesis (implantation to closure of the hard palate). The high doses are approximately 0.6 times the daily maximum recommended human dose (MRHD) of 660 mg/day on a mg/m^2 body surface area (BSA) basis.

clinical = conditions: human, in vivo; for half-life: t1/2 (min, max)
Experimental: Additionally, alpha 1 acid glycoprotein (AAG) plasma concentrations were measured in these two groups for correlation with free bupivacaine concentrations.
Using non-compartmental methods the following PK parameters were calculated from the plasma concentrations of each compound: area under the plasma concentration vs. time curve until the last measured concentration (AUCt), area under the plasma concentration vs. time curve extrapolated until infinity (AUCinf), the maximum concentration (Cmax), the time of its occurrence (tmax) and the apparent terminal elimination half-life (t1/2). […] The average […] of bupivacaine was approximately 5.2%; free bupivacaine plasma concentrations generally paralleled those of total bupivacaine. There was a large interindividual variability of Cmax of both total and free bupivacaine. […] Note: Table 1.5 presents Geometric mean, ±68th percentile for Cmax rather than absolute min,max.

SMILES: CCCCN1CCCCC1C(=O)Nc1c(C)cccc1C (stereo not shown) [Bupivacaine HCl]
- Cmax (min, max), free bupivacaine [1]: (0.3, 10.1) ng/mL
- Constant-Murley score decreased from baseline ([2]; 6-month follow-up): (0%)
- Constant-Murley score, follow-up, mean ([2]; 6-month follow-up): 65.6
- Shoulder MRI: Improved compared with pre-surgical MRI ([2]; 6-month follow-up): (24.0%)
- Shoulder MRI: No change compared with pre-surgical MRI ([2]; 6-month follow-up): (36.0%)
- Shoulder MRI: Worsened compared with pre-surgical MRI ([2]; 6-month follow-up): (40%)
- Adverse reaction: Electrocardiogram T wave inversion ([2]; Table 4.1, Study 1): 0%
- Adverse reaction: Headache ([2]; Table 4.1, Study 1): 1 (3.4%)
- Adverse reaction: Hypoesthesia ([2]; Table 4.1, Study 1): 1 (3.4%)
- Adverse reaction: Pruritus generalized ([2]; Table 4.1, Study 1): 0%
- All TEAEs ([2]; safety population): 37.9%
- TEAE: Alanine aminotransferase increased ([2]; safety population): 0.0%
- TEAE: Cardiac disorders ([2]; safety population): 10.3%
- TEAE: Gastrointestinal disorders ([2]; safety population): 3.4%
- TEAE: General disorders and administration site conditions ([2]; safety population): 0.0%
- TEAE: Headache ([2]; safety population): 3.4%
- TEAE: Injury, poisoning and procedural complications ([2]; safety population): 0.0%
- TEAE: Investigations ([2]; safety population): 6.9%
- TEAE: Musculoskeletal and connective tissue disorders ([2]; safety population): 6.9%
- TEAE: Musculoskeletal pain ([2]; safety population): 6.9%
- TEAE: Nausea ([2]; safety population): 3.4%
- TEAE: Nervous system disorders ([2]; safety population): 13.8%
- TEAE: Respiratory, thoracic and mediastinal disorders ([2]; safety population): 6.9%
- TEAE: Skin and subcutaneous tissue disorders ([2]; safety population): 6.9%
- Total IV morphine equivalent dose of opioid rescue medication, median ([3]; 0-72 hours after surgery): 8.0 mg
- Time to first use of opioid rescue medication, median (95% CI) ([3]; Kaplan-Meier): 1.4 (1.0, 4.1) hours
- Tmax Median [4]: 1 h
- Adverse reaction: Abdominal distension [5]: (4.8%)
- Adverse reaction: Abdominal pain [5]: (0.5%)
- Adverse reaction: Abdominal pain upper [5]: (1.0%)
- Adverse reaction: Anemia [5]: (0.7%)
- Adverse reaction: Body temperature increased [5]: 0%
- Adverse reaction: Chest pain [5]: (0.5%)
- Adverse reaction: Constipation [5]: (41.8%)
- Adverse reaction: Cough [5]: (1.8%)
- Adverse reaction: Diarrhea [5]: (5.5%)
- Adverse reaction: Dizziness [5]: (30.1%)
- Adverse reaction: Dry mouth [5]: (1.0%)
- Adverse reaction: Dysgeusia [5]: (16.9%)
- Adverse reaction: Dyspepsia [5]: (1.9%)
- Adverse reaction: Flatulence [5]: (4.0%)
- Adverse reaction: Headache [5]: (32.3%)
- Adverse reaction: Hypertension [5]: (3.6%)
- Adverse reaction: Hypokalemia [5]: (1.4%)
- Adverse reaction: Ileus [5]: (0.7%)
- Adverse reaction: Incision site erythema [5]: (2.7%)
- Adverse reaction: Incision site hematoma [5]: (1.7%)
- Adverse reaction: Incision site hemorrhage [5]: (3.0%)
- Adverse reaction: Incision site infection [5]: (2.5%)
- Adverse reaction: Insomnia [5]: (2.9%)
- Adverse reaction: Musculoskeletal pain [5]: (4.9%)
- Adverse reaction: Nasopharyngitis [5]: 0%
- Adverse reaction: Nausea [5]: (59.6%)
- Adverse reaction: Oropharyngeal pain [5]: (1.0%)
- Adverse reaction: Pain in extremity [5]: (2.8%)
- Adverse reaction: Paresthesia [5]: (13.1%)
- Adverse reaction: Post procedural contusion (bruising) [5]: (61.8%)
- Adverse reaction: Post procedural discharge [5]: (4.4%)
- Adverse reaction: Procedural pain [5]: (17.8%)
- Adverse reaction: Pruritus [5]: (18.7%)
- Adverse reaction: Pyrexia [5]: (5.7%)
- Adverse reaction: Rash [5]: (3.8%)
- Adverse reaction: Somnolence [5]: (41.0%)
- Adverse reaction: Urinary retention [5]: (1.2%)
- Adverse reaction: Vomiting [5]: (21.0%)
- Adverse reaction: Wound dehiscence [5]: (1.5%)
- Anemia, (%) [6]: (11.1%)
- C-reactive protein increased, (%) [6]: (3.7%)
- Dizziness, (%) [6]: (14.8%)
- Hypertension, (%) [6]: (7.4%)
- Pyrexia, (%) [6]: (25.9%)
- Somnolence, (%) [6]: (7.4%)
- Vomiting, (%) [6]: (14.8%)
- Pup survival at the high dose (rats): decreased pup survival was observed
- Embryo-fetal effects at the high dose (pregnant rats): No embryo-fetal effects were observed
- AUC(0-inf) (clinical): 30 to 2210 ng·h/mL
- AUC(0-t) (clinical): 249 to 1900 ng·h/mL
- AUCinf (min, max), free bupivacaine (clinical): (0.7, 134) h · ng/mL
- AUCinf, free bupivacaine (clinical): 48 ng·h/mL
- AUCt (min, max), free bupivacaine (clinical): (0.010, 0.102) mg · h · L^−1
- AUCt, free bupivacaine (clinical): 33 ng·h/mL
- Cmax (clinical): 8 to 195 ng/mL
- Cmax, free bupivacaine (clinical): 5.0 ng/mL
- Cmax, total bupivacaine (clinical): 90 ng/mL
- Tmax (clinical): 0.92 to 12 h
- tmax (min, max), free bupivacaine (clinical): (0.92, 12.0) h
- half-life (clinical; free bupivacaine): 2.9 to 15.2 h
- half-life (clinical; total bupivacaine): 2.6 to 9.6 h

Source: patent publication US12433877B2, “Sustained release drug delivery systems and related methods” (Durect Corporation, priority 2021, dated 2025)
